Assay results published in US20230134003A1, “METHOD AND APPARATUS FOR CLINICAL TESTING” (Lightcast Discovery Ltd, priority 2019, published 2023).

System: sample strain of E. coli bacteria
Test: Panel merge and MIC determination in microdroplets on oEWOD chip
Type: cell-based
Settings: gentamicin in tryptic soy broth (TSB) droplets merged with droplets of 1-3 bacteria; growth pattern observed within three hours of reducing the concentration
Method: Droplets were paired together so that the post-merge droplets were all roughly of uniform size. Every third droplet was labelled as a control and remained unpaired. The smaller droplets in this example contained the antibiotic gentamicin at a concentration of 500 ng/mL in tryptic soy broth (TSB), whilst each of the larger droplets contained 1-3 bacteria in TSB. […] Within three hours of reducing the concentration, a robust growth behaviour pattern was observed, allowing for a determination of the MIC. In this particular case, the MIC was determined to lie at approximately 300 pg/mL.

gentamicin
MIC: approximately 300 pg/mL
